Data reported in ChEMBL document CHEMBL1955819, “Ketoolivosyl-tetracenomycin C: a new ketosugar bearing tetracenomycin reveals new insight into the substrate flexibility of glycosyltransferase ElmGT” (2012).
Activity calls are given as the source filed them. The rule behind the calls is not given here.

Assays:
Streptomyces prasinus = assay: Antimicrobial activity against Streptomyces prasinus at 1 mg/mL by disc diffusion assay; type: functional; conditions: read-out: DIZ
Rhizomucor miehei = assay: Antimicrobial activity against Mucor miehei at 1 mg/mL by disc diffusion assay; type: functional, organism-based
Escherichia coli = assay: Antimicrobial activity against Escherichia coli XL1-blue at 1 mg/mL by disc diffusion assay; type: functional, organism-based

Structure (SMILES) | zone of inhibition at 1000 µg/mL (Streptomyces prasinus) | Activity (Rhizomucor miehei) | Activity (Escherichia coli)
COC(=O)c1c(O[C@@H]2O[C@@H](C)[C@H](OC)[C@@H](OC)[C@H]2OC)cc2cc3c(c(O)c2c1C)C(=O)[C@]1(OC)C(=O)C=C(OC)[C@@H](O)[C@]1(O)C3=O [ELLORAMYCIN] | 25 mm |  | 
COC(=O)c1c(O[C@H]2C[C@H](O)C(=O)[C@H](C)O2)cc2cc3c(c(O)c2c1C)C(=O)[C@]1(O)C(=O)C=C(OC)[C@@H](O)[C@]1(O)C3=O | 12 mm | inactive | inactive
